Measurements reported in ChEMBL document CHEMBL1201862, “PubChem BioAssay data set” (2004).
Where “and” joins values, the source holds several entries; their conditions need not be identical. Identical values can stand only once. Calls of active or inactive are those of the source.

Tests used:
[1] = biological target: T1, Scavenger receptor class B member 1 (Mus musculus, UniProt Q61009); assay: inhibitors of SR-BI-mediated HDL uptake, dose response, cell-based, ldlA[mSR-BI] CHO, DiI fluorescence, dry powder, set 10 (AID 624029); assay type: functional
T1 sequence (Q61009 whole entry): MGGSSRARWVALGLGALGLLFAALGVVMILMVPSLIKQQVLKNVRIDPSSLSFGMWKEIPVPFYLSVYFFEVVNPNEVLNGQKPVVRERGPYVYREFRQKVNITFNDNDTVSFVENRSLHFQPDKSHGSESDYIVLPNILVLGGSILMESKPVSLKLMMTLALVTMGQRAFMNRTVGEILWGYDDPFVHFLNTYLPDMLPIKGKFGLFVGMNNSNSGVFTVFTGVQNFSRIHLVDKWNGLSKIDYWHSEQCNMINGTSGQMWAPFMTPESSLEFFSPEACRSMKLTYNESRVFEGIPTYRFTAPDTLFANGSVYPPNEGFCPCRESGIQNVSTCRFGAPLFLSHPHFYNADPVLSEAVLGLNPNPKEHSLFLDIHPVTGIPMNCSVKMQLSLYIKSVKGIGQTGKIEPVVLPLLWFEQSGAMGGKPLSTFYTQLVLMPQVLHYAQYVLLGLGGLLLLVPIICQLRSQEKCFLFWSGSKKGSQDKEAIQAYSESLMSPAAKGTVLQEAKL

[2] = biological target: T1, Scavenger receptor class B member 1; assay: inhibitors of SR-BI dependent HDL uptake, dose response, ldlA[mSR-BI] CHO cells, fluorescence plate reader, dry powder, set 9 (AID 623880); assay type: functional, cell-based
[3] = biological target: T2, Nuclear receptor subfamily 0 group B member 1 (Homo sapiens, UniProt P51843); assay type: functional, cell-based;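 also: HEK293T cells transfected with SF-1 and DAX-1 plus StAR promoter luciferase reporter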
T2 sequence (P51843 whole entry): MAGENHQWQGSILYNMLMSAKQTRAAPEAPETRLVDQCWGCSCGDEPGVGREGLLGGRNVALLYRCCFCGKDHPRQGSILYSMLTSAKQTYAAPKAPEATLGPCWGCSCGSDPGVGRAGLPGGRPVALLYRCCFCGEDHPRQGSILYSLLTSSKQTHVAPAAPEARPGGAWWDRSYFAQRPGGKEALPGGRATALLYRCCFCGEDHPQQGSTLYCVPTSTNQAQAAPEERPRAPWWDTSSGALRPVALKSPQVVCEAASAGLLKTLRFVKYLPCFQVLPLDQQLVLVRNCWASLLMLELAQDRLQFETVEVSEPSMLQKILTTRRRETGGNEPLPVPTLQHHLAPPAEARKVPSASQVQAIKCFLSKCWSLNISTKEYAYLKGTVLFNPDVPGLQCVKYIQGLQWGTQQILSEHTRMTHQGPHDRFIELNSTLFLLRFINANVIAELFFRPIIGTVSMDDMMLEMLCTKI

[4] = HEp-2 cell cytotoxicity, dose response, cytotoxicity control for RSV inhibitor project, HTS (AID 2410); assay type: functional; settings: human respiratory syncytial virus
cells = assay type: functional, cell-based
[5] = ARNT/TACC3 interaction disruptors, potency, confirmation, biochemical, AlphaScreen, cherry-picked samples (AID 651703); assay type: functional, Homo sapiens;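 also: His-tagged ARNT PAS-B domain paired with GST-TACC3 E629A dimer coactivator fragment; potency of inhibitors that break up the complex and lower AlphaScreen signal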
[6] = inhibitors of firefly luciferase expression or activity, dose response, H4 neuroglioma cells, luminescence (AID 1990); assay type: functional, cell-based
[7] = inhibitors of SNCA 5'UTR-driven reporter translation, confirmation, H4 neuroglioma cells, luminescence (AID 1988); assay type: functional, cell-based
[8] = Luminescence Cell-Based Dose Response HTS to Identify Inhibitors of 5'UTR Stem-Loop Driven Prion Protein mRNA Translation in H4 Neuroglioblastoma Cells. [Related pubchem assays: 1827 (Project Summary), 1813 (Primary HTS)]; assay type: functional
[9] = biological target: T3, Probable nicotinate-nucleotide adenylyltransferase (Staphylococcus aureus (strain N315), UniProt P65502); assay type: functional, Staphylococcus aureus subsp. aureus N315;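 as to IC50 Mean: confirmatory dose-response retesting of NadD inhibitor hits first found in an ultra-high-throughput screen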
[10] = biological target: T3, Probable nicotinate-nucleotide adenylyltransferase; assay type: functional, Staphylococcus aureus subsp. aureus N315; settings: read-out: IC50_Mean
[11] = biological target: T4, Low molecular weight phosphotyrosine protein phosphatase (Homo sapiens, UniProt P24666); assay type: functional; settings: read-out: IC50_Mean;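 also: Dose-response confirmation assay measuring inhibition of LMPTP enzyme activity by fluorescence intensity read-out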
T4 sequence (P24666 whole entry): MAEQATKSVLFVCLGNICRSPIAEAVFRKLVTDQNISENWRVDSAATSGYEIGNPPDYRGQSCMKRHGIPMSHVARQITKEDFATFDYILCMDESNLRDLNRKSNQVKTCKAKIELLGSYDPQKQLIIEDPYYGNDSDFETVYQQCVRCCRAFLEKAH

H4 = assay: Luminescence Cell-Based Dose Response HTS to Identify Activators of 5'UTR Stem-Loop Driven Prion Protein mRNA Translation in H4 Neuroglioblastoma Cells. [Related pubchem assays: 1829 (Project Summary), 1814 (Primary HTS)]; assay type: functional; settings: Homo sapiens
[12] = Counterscreen for activators of the function of SWI/SNF related, matrix associated, actin dependent regulator of chromatin, subfamily a, member 2 (SMARCA2, BRM): Luminescence-based cell-based high throughput dose response assay to identify non-selective compounds using the VP16 reporter assay.; assay type: functional
[13] = biological target: SWI/SNF-related matrix-associated actin-dependent regulator of chromatin subfamily A member 2 (Homo sapiens, UniProt P51531); assay: Luminescence-based cell-based high throughput dose response assay to identify activators of the function of SWI/SNF related, matrix associated, actin dependent regulator of chromatin, subfamily a, member 2 (SMARCA2, BRM).; assay type: functional
[14] = Luminescence Cell-Based Dose Response HTS to Identify Activators of Luciferase Translation or Activity in H4 […] Cells. [Related pubchem assays: 1829 (Project Summary), 1814 (Primary HTS)]; assay type: functional
[15] = Luminescence Cell-Based Dose Confirmation HTS to Identify Activators of 5'UTR Stem-Loop Driven Alpha-Synuclein mRNA Translation in H4 Neuroglioblastoma Cells. [Related pubchem assays: 1829 (Project Summary), 1814 (Primary HTS)]; assay type: functional
[16] = biological target: Hepatocyte nuclear factor 4-alpha (Homo sapiens, UniProt P41235); assay type: functional, cell-based;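 also: biochemical luminescence-based dose-response counterscreen measuring inhibition of HNF4 dimerization, run alongside a screen for blockers of ABHD5–perilipin-5 interaction; split luciferase complementation of HNF4 fusion proteins in cell lysate measuring dimerization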
Hepatocyte nuclear factor 4-alpha, sequence (P41235 whole entry, the tested form may be a part): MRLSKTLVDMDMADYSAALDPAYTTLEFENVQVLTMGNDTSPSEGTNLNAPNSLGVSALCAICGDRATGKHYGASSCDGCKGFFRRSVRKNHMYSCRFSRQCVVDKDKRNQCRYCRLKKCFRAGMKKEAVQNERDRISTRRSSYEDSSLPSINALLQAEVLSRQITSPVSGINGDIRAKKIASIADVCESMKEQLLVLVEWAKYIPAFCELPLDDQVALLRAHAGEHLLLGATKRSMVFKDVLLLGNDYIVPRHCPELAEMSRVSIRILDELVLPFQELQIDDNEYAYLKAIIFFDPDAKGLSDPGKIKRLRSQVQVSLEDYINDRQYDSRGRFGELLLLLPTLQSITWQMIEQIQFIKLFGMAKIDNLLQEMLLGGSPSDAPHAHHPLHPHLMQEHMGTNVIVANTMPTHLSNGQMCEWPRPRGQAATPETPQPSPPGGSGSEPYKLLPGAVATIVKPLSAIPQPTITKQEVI

T3 sequence (P65502 whole entry): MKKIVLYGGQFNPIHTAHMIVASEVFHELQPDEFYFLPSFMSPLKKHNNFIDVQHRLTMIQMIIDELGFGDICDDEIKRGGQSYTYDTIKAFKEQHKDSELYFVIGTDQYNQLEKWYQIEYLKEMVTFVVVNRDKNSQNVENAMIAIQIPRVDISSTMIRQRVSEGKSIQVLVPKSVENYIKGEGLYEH
SWI/SNF-related matrix-associated actin-dependent regulator of chromatin subfamily A member 2, sequence (P51531 whole entry): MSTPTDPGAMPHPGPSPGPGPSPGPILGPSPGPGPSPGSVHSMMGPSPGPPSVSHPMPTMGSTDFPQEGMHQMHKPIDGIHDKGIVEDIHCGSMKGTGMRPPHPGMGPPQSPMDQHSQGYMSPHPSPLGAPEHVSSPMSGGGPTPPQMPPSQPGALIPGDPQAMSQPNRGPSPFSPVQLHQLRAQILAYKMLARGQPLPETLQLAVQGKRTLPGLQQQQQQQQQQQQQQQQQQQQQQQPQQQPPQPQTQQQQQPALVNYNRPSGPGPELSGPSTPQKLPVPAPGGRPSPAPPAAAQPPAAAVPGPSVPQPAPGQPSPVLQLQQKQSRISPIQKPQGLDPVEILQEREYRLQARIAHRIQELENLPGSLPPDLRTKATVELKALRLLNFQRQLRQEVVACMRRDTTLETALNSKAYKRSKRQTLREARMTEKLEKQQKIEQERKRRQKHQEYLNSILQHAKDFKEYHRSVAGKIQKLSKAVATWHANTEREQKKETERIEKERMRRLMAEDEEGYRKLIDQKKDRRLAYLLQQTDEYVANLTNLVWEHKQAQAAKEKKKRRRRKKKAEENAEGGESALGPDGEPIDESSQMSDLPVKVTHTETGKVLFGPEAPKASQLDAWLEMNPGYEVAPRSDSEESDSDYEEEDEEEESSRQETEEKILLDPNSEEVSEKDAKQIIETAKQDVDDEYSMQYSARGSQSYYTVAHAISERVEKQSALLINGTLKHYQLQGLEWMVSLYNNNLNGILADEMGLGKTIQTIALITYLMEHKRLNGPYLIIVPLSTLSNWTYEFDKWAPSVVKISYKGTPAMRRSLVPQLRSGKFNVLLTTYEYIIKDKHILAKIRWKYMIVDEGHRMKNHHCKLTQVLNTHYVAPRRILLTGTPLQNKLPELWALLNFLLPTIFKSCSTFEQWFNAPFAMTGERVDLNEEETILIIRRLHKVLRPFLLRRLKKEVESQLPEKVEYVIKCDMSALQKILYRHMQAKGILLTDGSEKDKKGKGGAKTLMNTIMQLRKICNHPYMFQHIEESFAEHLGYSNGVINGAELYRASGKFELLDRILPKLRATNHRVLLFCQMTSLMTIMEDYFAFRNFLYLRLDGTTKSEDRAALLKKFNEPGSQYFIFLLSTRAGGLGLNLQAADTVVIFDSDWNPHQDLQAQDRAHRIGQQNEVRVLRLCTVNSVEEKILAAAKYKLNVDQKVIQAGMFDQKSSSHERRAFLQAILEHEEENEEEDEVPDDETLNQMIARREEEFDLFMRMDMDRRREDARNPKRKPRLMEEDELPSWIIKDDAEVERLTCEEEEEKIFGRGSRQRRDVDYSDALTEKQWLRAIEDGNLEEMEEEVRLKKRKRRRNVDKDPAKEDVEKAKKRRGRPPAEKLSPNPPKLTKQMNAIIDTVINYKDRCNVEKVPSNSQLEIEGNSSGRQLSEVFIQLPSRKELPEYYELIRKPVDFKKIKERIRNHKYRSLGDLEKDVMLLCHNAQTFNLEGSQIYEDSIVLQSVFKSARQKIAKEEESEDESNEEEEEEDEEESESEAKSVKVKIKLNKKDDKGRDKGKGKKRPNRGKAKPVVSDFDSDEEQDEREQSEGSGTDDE

## CC(C)NC(=O)Nc1ccc2c(c1)C(=O)N([C@H](C)CO)C[C@@H](C)[C@H](CN(C)S(=O)(=O)c1ccc(Cl)cc1)O2
[1]
  AC50: 163 nM (active) and 121 nM (active)
[2]
  AC50: 58.9 nM (active)

## Cn1ncc(Cl)c1C(=O)Nc1ccc2c(c1)CCC2
[3]
  IC50: > 67.5 µM (inactive)
[4]
  CC50: 41.5 µM (active)
cells
  IC50: > 67.5 µM (inactive)

## O=C(NCCCn1ccnc1)C(=O)NCC1OCCCN1S(=O)(=O)c1ccccc1 (stereo not given)
[5]
  AC50: 80 µM (active)
[6]
  EC50: > 120 µM (not active)
[7]
  EC50: > 120 µM (not active)
[8]
  EC50: 17.5 µM (active)

## COc1ccccc1/C=C/C=N/NC(=O)c1cc(-c2ccco2)[nH]n1
[9]
  IC50: 19.5 µM (active)
[10]
  IC50: 41.2 µM (active)
[11]
  IC50: 80 µM (inactive)

## C[C@H](C(=O)NC1CCCC1)N(C(=O)Cn1nnc(-c2ccc3c(c2)OCO3)n1)C1CCCCC1
[1]
  AC50: 12.1 nM (active)
[2]
  AC50: 15 nM (active)

## O=C(CNS(=O)(=O)c1ccccc1)OCC(=O)c1ccc(OC(=O)c2ccccc2)cc1
H4
  EC50: > 120 µM (not active)
[12]
  EC50: > 91.2 µM (inactive)
[13]
  EC50: > 91.2 µM (inactive)
[14]
  EC50: 11.7 µM (active)
[15]
  EC50: > 120 µM (not active)

## O=C(NC1CCCCC1)C(c1ccnc2ccccc12)n1c(=O)c(-c2ccco2)nc2ccccc21 (stereo not given)
[16]
  IC50: 2.23 µM (active)
